The text below walks through data of PubChem BioAssay (NCI).

Test systems include M14 melanoma; PC-3 prostate; NCI-H226 lung; HS 578T breast; MDA-MB-435; MALME-3M melanoma; SK-OV-3 ovarian; NCI-H23 lung; CCRF-CEM leukemia; SF-539 CNS.
Common to all, as to assay: growth of human tumour cells (NCI), 48 h

Each structure is given as a SMILES string.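 Following 48 hours of exposure in 96-well plates, responses at five concentrations were used to interpolate endpoints linearly. Abbreviation: GI50, concentration required for 50% inhibition of growth. The concentration for full growth arrest is given as TGI.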 Bounds are passed on as bounds.

Regarding `C#CCOC(=O)C(N)CCSC` (centres undefined), the TGI in the assay with M14 melanoma, with PC-3 prostate, in the assay on NCI-H226 lung, with HS 578T breast, with MDA-MB-435 and with MALME-3M melanoma was over 100 µM each time. Moreover, the TGI in the assay with SK-OV-3 ovarian, in the assay on NCI-H23 lung and in the assay with CCRF-CEM leukemia was over 100 µM in each case.

As to `Cc1ccc2c(=O)c(-c3n[nH]c(=S)s3)c[nH]c2n1`, the TGI with M14 melanoma, in the assay on PC-3 prostate, in the assay on NCI-H226 lung, with HS 578T breast, in the assay with MDA-MB-435 and in the assay on MALME-3M melanoma was over 100 µM throughout. Besides, the TGI with NCI-H23 lung and in the assay with CCRF-CEM leukemia was over 100 µM throughout.

Regarding `COC(=O)C(Cc1nc2ccccc2[nH]c1=O)C(=O)C(=O)Nc1cc(C(F)(F)F)ccc1Cl` (centres undefined), the TGI was 30.9 µM with M14 melanoma; 34.4 µM with PC-3 prostate; 35.1 µM with NCI-H226 lung; 43.2 µM in the assay on HS 578T breast; over 100 µM in the assay with MDA-MB-435; 31.4 µM in the assay with MALME-3M melanoma. Further, the TGI in the assay with SK-OV-3 ovarian was over 100 µM; in the assay on NCI-H23 lung it was 30.4 µM; in the assay on CCRF-CEM leukemia, 48.2 µM.

`CC1(C)c2ccccc2C(O)C12CCC(=O)CC2` (centres undefined): the TGI with M14 melanoma, in the assay on PC-3 prostate, with NCI-H226 lung, with SF-539 CNS, with HS 578T breast and in the assay on MDA-MB-435 was over 100 µM throughout. For the same compound, the TGI with MALME-3M melanoma, with SK-OV-3 ovarian and in the assay with NCI-H23 lung was over 100 µM throughout.

On to `NCCCC[C@H](N)C(=O)Nc1ccc(-c2nc3ccccc3s2)cc1Cl`, for which the TGI in the assay with M14 melanoma worked out at 13.8 µM; in the assay on PC-3 prostate it was 31.2 µM; in the assay with NCI-H226 lung it was 4.62 µM; in the assay with HS 578T breast, 51.5 µM; in the assay with MDA-MB-435 it was 9.58 µM; in the assay on MALME-3M melanoma it was 28.3 µM. In addition, the figures for the TGI in the assay with SK-OV-3 ovarian, in the assay on NCI-H23 lung and in the assay on CCRF-CEM leukemia were 31.1 µM, over 37.6 µM and 14.7 µM, respectively.

Consider `O=C1N[C@@H](COc2ccc(C=Nc3ccc(CCc4ccc(N=Cc5ccc(OC[C@@H]6COC(=O)N6)cc5)cc4)cc3)cc2)CO1`, for which the TGI in the assay with M14 melanoma, in the assay with PC-3 prostate, in the assay with NCI-H226 lung, with HS 578T breast, in the assay with MDA-MB-435 and in the assay on MALME-3M melanoma was over 100 µM each time. The TGI in the assay on SK-OV-3 ovarian was over 100 µM.

For the compound `COc1ccc2[nH]c(O)c(/C=c3/cc4c(c(-c5ccc(F)cc5)n3)=Nc3ccccc3-4)c2c1`, the GI50 in the assay on M14 melanoma is 1.98 µM; with PC-3 prostate, 8.26 µM; with NCI-H226 lung, 34.2 µM; in the assay with SF-539 CNS, 7.62 µM; in the assay with HS 578T breast it was 2.02 µM; in the assay on MDA-MB-435, 2.05 µM. The GI50 with MALME-3M melanoma is 2.4 µM; in the assay with SK-OV-3 ovarian, 17.2 µM; in the assay on NCI-H23 lung, 2.58 µM. Moreover, the TGI in the assay on M14 melanoma is 3.85 µM; in the assay with PC-3 prostate, over 100 µM; in the assay with NCI-H226 lung, over 100 µM; in the assay on SF-539 CNS, 20.6 µM; in the assay with HS 578T breast, 7.48 µM; in the assay on MDA-MB-435, 6.34 µM. Moreover, the values for the TGI with MALME-3M melanoma, with SK-OV-3 ovarian and in the assay on NCI-H23 lung were 4.6 µM, 33.8 µM and 10.9 µM, respectively.

For the compound `COc1cc2c(c(OC)c1OC)-c1ccc(SC)cc1C(=O)CC2`, the TGI in the assay on M14 melanoma was over 100 µM; in the assay with PC-3 prostate, over 100 µM; with SF-539 CNS, under 0.01 µM; with HS 578T breast it was over 100 µM; in the assay with MDA-MB-435 it was over 100 µM; in the assay on MALME-3M melanoma, over 21.9 µM. Further, the values for the TGI in the assay with SK-OV-3 ovarian, with NCI-H23 lung and in the assay on CCRF-CEM leukemia were under 0.01 µM, over 100 µM and over 100 µM, respectively.

With `CN(C)CCn1nc(N)c2nc3cc(C(F)(F)F)ccc3nc21`, the TGI in the assay on M14 melanoma, with PC-3 prostate, in the assay with NCI-H226 lung, in the assay with HS 578T breast, with MDA-MB-435 and in the assay with MALME-3M melanoma was over 100 µM in each case. Also, the TGI with SK-OV-3 ovarian, in the assay on NCI-H23 lung and with CCRF-CEM leukemia was over 100 µM each time.

On to `COC(=O)[C@H](CCSC)NC(=O)c1ccc(CNC(=O)/C(C)=C/c2ccccc2)cc1`, for which the TGI is 83.7 µM with M14 melanoma; over 100 µM in the assay with PC-3 prostate; over 100 µM in the assay on NCI-H226 lung; 61.2 µM in the assay with SF-539 CNS; over 100 µM in the assay on MDA-MB-435; 29.5 µM in the assay with MALME-3M melanoma. For the same compound, the TGI with SK-OV-3 ovarian, in the assay with NCI-H23 lung and with CCRF-CEM leukemia was over 100 µM throughout.

Take `COc1cccc(-c2cc(=O)c3cc(Cl)cnc3[nH]2)c1`: the TGI with M14 melanoma is over 9.71 µM; in the assay with PC-3 prostate, over 100 µM; with NCI-H226 lung, 1.57 µM; in the assay with SF-539 CNS it was 2.56 µM; with HS 578T breast, 47.6 µM; in the assay on MALME-3M melanoma, over 100 µM. Also, the figures for the TGI in the assay on SK-OV-3 ovarian, in the assay with NCI-H23 lung and with CCRF-CEM leukemia were 74.8 µM, 8.3 µM and over 100 µM, respectively.

Regarding `C=CCC(CNC(=O)OCc1ccccc1)OC(=O)OCc1ccccc1` (centres undefined), the TGI with M14 melanoma, in the assay on PC-3 prostate, with NCI-H226 lung, in the assay with SF-539 CNS, in the assay with HS 578T breast and with MDA-MB-435 was over 100 µM throughout. Further, the TGI with SK-OV-3 ovarian, in the assay on NCI-H23 lung and in the assay with CCRF-CEM leukemia was over 100 µM each time.

In the case of `CC1CN=C(c2ccc(COc3ccc(C4=NCC(C)N4)cc3)cc2)N1` (centres undefined), the TGI in the assay on M14 melanoma, in the assay with PC-3 prostate, in the assay with SF-539 CNS, in the assay with HS 578T breast, in the assay on MDA-MB-435 and with MALME-3M melanoma was over 100 µM throughout. Further, the TGI in the assay on SK-OV-3 ovarian, in the assay with NCI-H23 lung and in the assay with CCRF-CEM leukemia was over 100 µM each time.

For `N=C(c1cccs1)C1(N2CCCCC2)CCCCC1`, the TGI in the assay with M14 melanoma is 47.4 µM; in the assay with PC-3 prostate it was 81.8 µM; in the assay with HS 578T breast, over 100 µM; in the assay on MDA-MB-435 it was 37.8 µM; in the assay with MALME-3M melanoma, 30.2 µM; in the assay with SK-OV-3 ovarian it was 46.8 µM. For the same compound, the TGI turned out to be 43.5 µM in the assay with NCI-H23 lung and 36.2 µM with CCRF-CEM leukemia.

With `OC1c2ccccc2C(O)C2OC12` (centres undefined), the TGI in the assay on M14 melanoma, in the assay on PC-3 prostate, in the assay on NCI-H226 lung, with SF-539 CNS, with MDA-MB-435 and in the assay on MALME-3M melanoma was over 100 µM each time. The TGI in the assay on SK-OV-3 ovarian, in the assay on NCI-H23 lung and with CCRF-CEM leukemia was over 100 µM in each case.

In the case of `COc1ccc(N2C(=O)C3CC4=CC(=O)C[C@H]4[C@H]32)cc1` (some centres undefined), the TGI with M14 melanoma, in the assay on PC-3 prostate, in the assay on NCI-H226 lung, with HS 578T breast, in the assay with MDA-MB-435 and with SK-OV-3 ovarian was over 100 µM throughout. The compound also displayed a TGI with NCI-H23 lung of over 100 µM.

Turning to `COCCNC1CCC2(SCCS2)c2[nH]c3ccccc3c21` (centres undefined), the TGI with M14 melanoma is 30.4 µM; with PC-3 prostate, over 100 µM; in the assay with NCI-H226 lung, over 100 µM; in the assay on SF-539 CNS, 50.7 µM; in the assay on HS 578T breast, over 100 µM; in the assay on MDA-MB-435, 62.1 µM. For the same compound, the TGI with NCI-H23 lung is over 100 µM; with CCRF-CEM leukemia it was 88.3 µM.

`O=P1(c2ccccc2)C2=CCC=CC2C(c2ccccc2)N1Cc1ccccc1` (centres undefined): the TGI with M14 melanoma was 32.3 µM; in the assay on PC-3 prostate it was 27.6 µM; in the assay with SF-539 CNS, 31.5 µM; in the assay on HS 578T breast it was 43.9 µM; with MDA-MB-435 it was 29.8 µM; with MALME-3M melanoma it was 32.9 µM. The TGI in the assay on SK-OV-3 ovarian turned out to be 31 µM; with NCI-H23 lung it was 24.8 µM; with CCRF-CEM leukemia, 34.9 µM.

Turning to `CC1=CC(=O)/C(=C/n2c(=S)[nH]c3ccccc32)C(=O)O1`, the TGI with M14 melanoma, in the assay with PC-3 prostate, in the assay on NCI-H226 lung, with SF-539 CNS, with HS 578T breast and in the assay with MDA-MB-435 was over 100 µM throughout. For the same compound, the TGI in the assay on SK-OV-3 ovarian, in the assay with NCI-H23 lung and in the assay on CCRF-CEM leukemia was over 100 µM in each case.

For the compound `CC(=O)O[C@H]1CC[C@H]2[C@@H]3CCC(C(C)=O)[C@H](C(=O)O)[C@H]3CC[C@]12C` (some centres undefined), the TGI with M14 melanoma, in the assay with PC-3 prostate, in the assay on SF-539 CNS, in the assay on HS 578T breast, in the assay with MDA-MB-435 and in the assay on MALME-3M melanoma was over 100 µM each time. Also, the TGI with SK-OV-3 ovarian, in the assay with NCI-H23 lung and in the assay on CCRF-CEM leukemia was over 100 µM in each case.

Regarding `CC[C@H](C)C1=C(OC(C)=O)[N@+]2([O-])Oc3ccc(-c4c(OC(C)=O)c(OC(C)=O)c(-c5ccc(OC(C)=O)cc5)c(OC(C)=O)c4OC(C)=O)cc3O[C@]2([C@@H](C)CC)C(=O)N1OC(C)=O`, the TGI with M14 melanoma is over 50 µM; with PC-3 prostate, 30 µM; in the assay on NCI-H226 lung, over 50 µM; in the assay with SF-539 CNS, 28.5 µM; with MDA-MB-435 it was over 50 µM; in the assay with MALME-3M melanoma, over 50 µM. Besides, the TGI in the assay on SK-OV-3 ovarian was 49.4 µM; with NCI-H23 lung, over 50 µM; in the assay with CCRF-CEM leukemia it was 11.3 µM.

As for `O=C(NN=C1CCCCC1)NN=C1CCCCC1`, the TGI in the assay with M14 melanoma, in the assay on PC-3 prostate, with HS 578T breast, with MDA-MB-435, with MALME-3M melanoma and in the assay on SK-OV-3 ovarian was over 100 µM throughout. Besides, the TGI in the assay on NCI-H23 lung and with CCRF-CEM leukemia was over 100 µM each time.
